Read-outs that look alike come from different tables or passages of the source. Blank lines part the entries; values can stand above or below the compound they belong to.
Tests used:
KLK4 = target: T1, KLK4 (Homo sapiens, UniProt Q9Y5K2); test: Selectivity screening, KLK4; format: biochemical; conditions: 50 μM compound, without Fe3+; read-out: percentage of inhibition KLK4
T1 construct: purchased R&D Systems

KLK11 = target: T2, KLK11 (Homo sapiens, UniProt Q9UBX7); test: Selectivity screening, KLK11; format: biochemical; conditions: 50 μM compound, without Fe3+; read-out: percentage of inhibition KLK11
T2 construct: purchased R&D Systems
T2 sequence (Q9UBX7 54-282): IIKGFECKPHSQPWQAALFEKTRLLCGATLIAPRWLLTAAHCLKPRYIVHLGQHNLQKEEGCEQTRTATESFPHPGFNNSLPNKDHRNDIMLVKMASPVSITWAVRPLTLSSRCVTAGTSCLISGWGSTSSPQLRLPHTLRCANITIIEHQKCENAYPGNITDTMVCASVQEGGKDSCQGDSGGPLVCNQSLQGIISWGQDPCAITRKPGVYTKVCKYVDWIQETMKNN

KLK14 = target: T3, KLK14 (Homo sapiens, UniProt Q9P0G3); test: Selectivity screening, KLK14; format: biochemical; conditions: 50 μM compound, without Fe3+; read-out: percentage of inhibition KLK14
T3 construct: purchased R&D Systems
T3 sequence (Q9P0G3 25-251): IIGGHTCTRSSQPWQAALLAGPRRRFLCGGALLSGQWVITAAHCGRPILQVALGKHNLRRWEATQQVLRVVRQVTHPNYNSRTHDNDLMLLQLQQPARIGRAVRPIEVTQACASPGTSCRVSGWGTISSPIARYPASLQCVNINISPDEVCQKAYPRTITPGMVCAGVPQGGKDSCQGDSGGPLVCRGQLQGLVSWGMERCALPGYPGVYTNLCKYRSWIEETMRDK

[1] = UV–vis spectroscopy of Fe3+ chelation and complex stability; format: physicochemical; conditions: activity buffer pH 7.4, 1:1 ratio, t = 0 to 240 min
Experimental: UV–vis analysis of DFX was first performed to monitor the chelation process and the stability of the Fe^3+ complex over time at a 1:1 ratio, typically representing the duration of inhibition assay (30 min to 4 h) (Figure S1, Supporting Information). In these conditions of pH (7.4) and ligand‐to‐iron ratio and according to Steinhauser et al. the main species in solution is assigned to [Fe(DFX)2]^3−.^[ [49] ^] Indeed, we aimed to explore not only the chelation properties but also the impact of the chelated species on enzyme inhibition.
2.c. Chelation properties, iron interactions, and selectivity profiles of selected compounds targeting KLK activity.
Figure S2: Stability of the chelated species as monitored by spectrophotometry. UV/VIS spectra of molecules alone using activity buffer at pH 7.4 (in orange at 500 µM) or in the presence of FeCl3 (ratio of 1:1) at different times (t = 0 in red, 30 min in black, 60 min in blue and 240 min in green). The purple trace corresponds to iron only at 500 µM All data are representative of 2 independent experiments performed in duplicate. […]

[2] = Calcein transchelation (calcein release) assay; format: physicochemical; conditions: calcein 100 nM, 4 h at room temperature; estimation, assay not fully quantitative; read-out: Apparent affinity (pseudo‐affinity constant Kd for Fe3+)
KLK8 = target: T4, KLK8 (Homo sapiens, UniProt O60259); test: KLK8 fluorogenic enzyme inhibition assay (Boc-VPR-AMC)
T4 sequence (O60259 33-260): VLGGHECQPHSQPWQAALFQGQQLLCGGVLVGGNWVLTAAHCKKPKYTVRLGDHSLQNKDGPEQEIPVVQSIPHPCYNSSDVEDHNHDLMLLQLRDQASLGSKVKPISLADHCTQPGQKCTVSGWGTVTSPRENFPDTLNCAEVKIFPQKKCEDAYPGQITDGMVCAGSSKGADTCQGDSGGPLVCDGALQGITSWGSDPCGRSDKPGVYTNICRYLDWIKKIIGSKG
Experimental: (§1) All enzyme stocks were stored at −20 °C and purchased from R&D Systems as proenzymes (KLK6, KLK8, KLK13) or as mature and active forms (KLK5). Activation of KLK6, KLK8, and KLK13 is performed in optimized buffers. The activation reaction is initiated by Lysyl‐Endopeptidase at 2.5 mU mL^−1 (Wako Bioproducts). The activation reaction is stopped by diluting the enzyme to 0.5 μg mL^−1 in assay buffer (50 mM Tris, 1 M Citrate, 0.05% w/v Brij‐35, pH 8) to obtain an active enzyme stock. KLK1 was purchased from R & D Systems as pro‐KLK1. Activation of KLK1 is performed in 50 mM Tris‐HCl, 10 mM CaCl2, 150 mM NaCl, 0.05% Brij‐35, pH 7.5. The activation reaction is initiated by bacterial thermolysin at 0.4 μg mL^−1 (Sigma‐Aldrich) and stopped by addition of 100 mM EDTA (Sigma‐Aldrich) to obtain an active KLK1 stock at the same concentration of 100 μg mL^−1. […] All enzyme stocks were stored at −20 °C. H‐PFR‐AMC (KLK1), Boc‐VPR‐AMC (KLK5, KLK8, KLK13), Boc‐QAR‐AMC (KLK6, Plasmin), substrates were purchased from Bachem. […] Plasmin (Sigma‐Aldrich) was purchased in mature and active form.
(§2) Compounds were screened on KLKs using a BMG Fluostar microplate reader (black 96‐well microplates). Hit compounds were screened on the selected group of enzymes using optimized concentrations and buffers (KLK1 0.8 nM, KLK4 10 nM, KLK5 0.2 nM; KLK6 1.9 nM; KLK7 6 nM; KLK8 0.2 nM; KLK11 5.2 nM, KLK13 0.47 nM, KLK14 2.5 nM, plasmin 3.3 nM, thrombin 0.1 nM, tissue‐plasminogen activator (tPA) 0.1 nM, matriptase 1 nM, cathepsin L 2 nM) either in absence or prior preincubation in the presence of 100 μM of Fe^3+.
(§3) The proteases are first preincubated for 15 min with each compound (50 and 100 μM) or with DMSO (<2%, negative control) in a total volume of 85 μL of 50 mM Tris buffer, 1 M citrate, 0.05% Brij‐35, pH 7, 37 °C. The reaction is triggered by the appropriate substrate at the optimized concentration in 15 μL of 50 mM Tris buffer, 1 M citrate, 0.05% Brij‐35, pH 8 (H‐PFR‐AMC 100 μM; Boc‐VPR‐AMC 100 μM; Boc‐QAR‐AMC 100 μM; Meo‐Suc‐RPY‐AMC 150 μM, Z‐LR‐AMC 100 μM, Z‐GGR‐AMC 100 μM) and followed for 30 min at 37 °C. […] The release of the AMC fluorescent group is detected using the following wavelengths: λex = 360 nm and λem = 460 nm. The percent inhibition is calculated from Equation (1) where V 0 is the initial rate of the DMSO control, the initial rate in the presence of the inhibitor V i. (1) %inhibition=(1−(vi/v0))×100
(§4) The equation is entered in the Kaleidagraph 4.5 software for curve fitting f([I]) = % Inhibition, where [I] is the inhibitor concentration.
(§5) The mechanism of inhibition was determined by varying substrate and inhibitor concentrations, the type of inhibition and inhibition parameter (Ki or Ki′) are determined by Dixon's plots.

[3] = test system: KLK's of the CNS triad (KLK1‐KLK6‐KLK8); test: Reversibility analysis by dilution after preincubation; format: biochemical, human; conditions: 100-fold dilution after 15 min preincubation
Experimental: Aliquots of reaction mixtures (1 μL) were added to 99 μL of buffer containing the fluorogenic substrate (experimental conditions identical to the routine protocol used for a given enzyme). The mechanism of inhibition was determined by varying substrate and inhibitor concentrations, the type of inhibition and inhibition parameter (Ki or Ki′) are determined by Dixon's plots.

[4] = CCK8 cell viability assay, HMC3; format: cell-based; conditions: human, HMC3 microglial cells; HMC3, 24h, 25 and 50 μM, in absence or presence of iron (100 µM FAC); read-out: percentage of cell viability
Experimental: (§6) Human neuroblastoma cell line (SH-SY5Y) was purchased at American Type Culture Collection
(§7) Both cell lines were cultured in Dulbecco’s Modified Eagle Medium (DMEM)
(§8) containing 10% heat inactivated fetal bovine serum (FBS), 1% Penicillin/Streptomycin, 10 mM
(§9) Sodium Pyruvate, 2 mM L-Glutamine and 4,5 g/L D-glucose at 37°C, in a 5% humidified
(§10) incubator. Cells were cultivated until 80% confluence in flasks then were plated in 96-well
(§11) plates. For this experiment, SH-SY5Y were used at 10th passage and HMC3 at 13th. SH-SY5Y
(§12) cells were seeded at a density of 3x10^4 cells/well and HMC3 at a density of 10^4 cells/well. After
(§13) seeding, cells were left in complete medium overnight to adhere to the plates. After that, cells
(§14) were treated using inhibitors solubilized in DMSO at stock concentrations of 2,5 mM or 5 mM
(§15) with or without 10 mM iron. Iron solution was prepared by using FAC (Ferric Ammonium
(§16) Citrate, Sigma®) at stock concentration of 25 mM. After 24h of treatment, cell viability was
(§17) assessed with the CCK8 (Cell-Counting Kit 8) from TargetMol. After treatments, 10 µL of CCK8
(§18) reagent was diluted in 90 µL of complete medium and added to each well. After 3 hours at
(§19) 37°C, cell viability was assessed by absorbance measurement at 460 nm. Each viability assay
(§20) is the mean of two independent experiments performed in triplicates.
(§21) treated for 24h with the two selected concentrations of inhibitor (25 µM or 50 µM)
(§22) preincubated or not with 100 µM of FAC. The data are the mean of two independent
experiments performed in triplicates.

[5] = CCK8 cell viability assay, SH-SY5Y; format: cell-based; conditions: human, SH-SY5Y neuroblastoma cells, 25 and 50 μM, in absence or presence of iron (100 µM FAC), read-out: percentage of cell viability
Experimental: as §6, §7, §8, §9, §10, §11, §12, §13, §14, §15, §16, §17, §18, §19, §20, §21, §22
experiments performed in triplicates.

KLK5 = target: T5, KLK5 (Homo sapiens, UniProt Q9Y337); test: Selectivity screening, KLK5; conditions: read-out: percentage of inhibition KLK5
T5 sequence (Q9Y337 67-293 limits assumed): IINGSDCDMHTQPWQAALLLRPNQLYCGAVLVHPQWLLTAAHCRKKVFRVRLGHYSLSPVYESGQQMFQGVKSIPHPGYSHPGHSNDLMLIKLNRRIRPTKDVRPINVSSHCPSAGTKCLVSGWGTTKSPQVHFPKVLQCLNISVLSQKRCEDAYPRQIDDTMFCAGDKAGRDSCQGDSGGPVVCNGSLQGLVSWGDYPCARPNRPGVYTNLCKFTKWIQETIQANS
Experimental: (§23) All enzyme stocks were stored at −20 °C and purchased from R&D Systems as proenzymes (KLK6, KLK8, KLK13) or as mature and active forms (KLK5). Activation of KLK6, KLK8, and KLK13 is performed in optimized buffers. The activation reaction is initiated by Lysyl‐Endopeptidase at 2.5 mU mL^−1 (Wako Bioproducts). The activation reaction is stopped by diluting the enzyme to 0.5 μg mL^−1 in assay buffer (50 mM Tris, 1 M Citrate, 0.05% w/v Brij‐35, pH 8) to obtain an active enzyme stock. KLK1 was purchased from R & D Systems as pro‐KLK1. Activation of KLK1 is performed in 50 mM Tris‐HCl, 10 mM CaCl2, 150 mM NaCl, 0.05% Brij‐35, pH 7.5. The activation reaction is initiated by bacterial thermolysin at 0.4 μg mL^−1 (Sigma‐Aldrich) and stopped by addition of 100 mM EDTA (Sigma‐Aldrich) to obtain an active KLK1 stock at the same concentration of 100 μg mL^−1. The activation reactions for KLK7 are initiated bacterial thermolysin at 0.4 μg mL^−1 (Sigma‐Aldrich) and stopped by addition of 100 mM EDTA (Sigma‐Aldrich) to obtain active stocks. All enzyme stocks were stored at −20 °C. H‐PFR‐AMC (KLK1), Boc‐VPR‐AMC (KLK5, KLK8, KLK13), Boc‐QAR‐AMC (KLK6, Plasmin), substrates were purchased from Bachem. MeO‐Suc‐RPY‐AMC (KLK7) substrate was purchased from AAT Bioquest. Plasmin (Sigma‐Aldrich) was purchased in mature and active form.
as §2, §3

KLK13 = target: T6, KLK13 (Homo sapiens, UniProt Q9UKR3); test: Selectivity screening, KLK13; conditions: read-out: percentage of inhibition KLK13
T6 sequence (Q9UKR3 26-277 limits assumed): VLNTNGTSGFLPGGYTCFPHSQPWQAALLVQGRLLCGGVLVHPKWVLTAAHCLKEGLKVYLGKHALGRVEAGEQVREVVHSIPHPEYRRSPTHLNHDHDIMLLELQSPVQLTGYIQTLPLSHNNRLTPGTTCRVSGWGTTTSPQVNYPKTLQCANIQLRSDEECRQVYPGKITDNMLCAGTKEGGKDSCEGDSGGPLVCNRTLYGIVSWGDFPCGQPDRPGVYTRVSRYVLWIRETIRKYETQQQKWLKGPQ
Experimental: as §23, §2, §3

[6] = test system: targeted KLKs (KLK1, KLK6, KLK8); test: Impact of preincubated compound (50 μM) and Fe3+ (100 μM) on targeted KLKs; format: biochemical, human; conditions: compound 50 μM preincubated with Fe3+ 100 μM
Experimental: Next, we evaluated the impact of preincubated mixtures of each compound at 50 μM and Fe^3+ at 100 μM to model an iron overload condition on targeted KLKs (Figure S5, Supporting Information).

KLK1 = KLK1 (Homo sapiens, UniProt P06870); test: KLK1 fluorogenic enzyme inhibition assay (H-PFR-AMC); conditions: for IC50: IC50 KLK1, 15 min preincubation at 37 °C, NI = not a hit (not above 50% inhibition at 50 μM)
Sequence of KLK1 (P06870 25-262): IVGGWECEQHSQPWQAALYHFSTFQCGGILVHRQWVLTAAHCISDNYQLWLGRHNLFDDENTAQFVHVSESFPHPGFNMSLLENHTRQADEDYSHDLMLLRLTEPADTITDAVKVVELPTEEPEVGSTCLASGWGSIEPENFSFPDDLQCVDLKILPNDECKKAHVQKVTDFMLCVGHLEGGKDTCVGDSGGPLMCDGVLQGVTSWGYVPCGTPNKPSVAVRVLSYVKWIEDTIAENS
Experimental: as §1, §2, §3, §4, §5

KLK6 = KLK6 (Homo sapiens, UniProt Q92876); test: KLK6 fluorogenic enzyme inhibition assay (Boc-QAR-AMC); conditions: read-out: percentage of inhibition KLK6
Experimental: as §1, §2, §3, §4, §5

[7] = IC50 KLK8, 15 min preincubation at 37 °C, NI = not a hit (not above 50% inhibition at 50 μM)

T1 sequence (Q9Y5K2 31-254): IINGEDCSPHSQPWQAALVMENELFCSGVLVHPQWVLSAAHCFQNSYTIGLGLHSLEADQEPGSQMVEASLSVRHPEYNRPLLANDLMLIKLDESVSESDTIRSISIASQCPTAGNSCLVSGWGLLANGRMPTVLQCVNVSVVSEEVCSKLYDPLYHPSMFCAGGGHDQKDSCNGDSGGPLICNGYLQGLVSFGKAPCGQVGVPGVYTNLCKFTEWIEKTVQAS

inhibition at 50 µM (KLK4): 80.6% | inhibition at 50 µM (KLK11): 90.6% | inhibition at 50 µM (KLK14): 94.2% | Ki′ KLK8 (KLK8; Dixon plot, 100 μM substrate, without Fe3+): 8 µM | Type of inhibition KLK8 (KLK8; Dixon plot, without Fe3+): Uncompetitive | Type of inhibition KLK8 (KLK8; Dixon plot, without Fe3+, listed as DFX): uncompetitive inhibition | IC50 (KLK8; [7]): 29.2 ± 1 µM | IC50 (KLK8; IC50 KLK8, initial screening of an in‐house array of 1,2,4‐triazole derivatives): ~30 µM | inhibition at 50 µM (KLK8; read-out: percentage of inhibition KLK8): 70.1% | inhibition at 50 µM (KLK5): 85.1% | inhibition at 50 µM (KLK13): 95.1%
SMILES: O=C(O)c1ccc(-n2nc(-c3ccccc3O)nc2-c2ccccc2O)cc1 [3a, Deferasirox]
UV–vis spectrum in the presence of FeCl3 (iron complex formation) [1]: appearance of an absorption band with a maximum at 468 nm | Kd [2]: 0.549 ± 0.007 nM | reversibility and time dependence of inhibition [3]: reversible and time‐independent inhibitors | viability at 24 h [4]: > 80% | viability at 24 h [5]: > 80%

IC50 (KLK8; [7]): > 50 µM
SMILES: Oc1ccccc1-c1n[nH]c(-c2ccccc2O)n1 [3c]
Kd [2]: 0.032 ± 0.012 nM | change of inhibitory activity in the presence of iron [6]: significant higher inhibitory potency in the presence of Fe^3+ on all KLKs

SMILES: O=C(c1ccccc1)n1nc(-c2ccccc2O)nc1-c1ccccc1O [3e]
inhibition at 50 µM (KLK4): 67.2% | Ki (KLK1): 24 µM | Type of inhibition KLK1 (KLK1; Dixon plot, without Fe3+): competitive inhibitor | IC50 (KLK1): 23.3 ± 0.9 µM | inhibition at 50 µM (KLK1; read-out: percentage of inhibition KLK1): 82.1% | Kd [2]: 0.41 ± 0.035 nM | IC50 (KLK8): > 50 µM | reversibility and time dependence of inhibition [3]: reversible and time‐independent inhibitors | viability at 24 h [4]: > 80% | inhibition at 50 µM (KLK6): 82.4% | viability at 24 h [5]: > 80% | inhibition at 50 µM (KLK5): 98.8% | inhibition at 50 µM (KLK13): 97.1%

SMILES: CCOC(=O)[C@H]1CC[C@H](n2nc(-c3ccccc3O)nc2-c2ccccc2O)CC1 [3fa]
IC50 (KLK8): > 50 µM

SMILES: O=C(O)[C@H]1CC[C@H](n2nc(-c3ccccc3O)nc2-c2ccccc2O)CC1 [3fb]
IC50 (KLK8): > 50 µM

SMILES: CCOC(=O)Cn1nc(-c2ccccc2O)nc1-c1ccccc1O [3g]
IC50 (KLK8): > 50 µM

SMILES: O=C(O)Cn1nc(-c2ccccc2O)nc1-c1ccccc1O [3h]
Kd [2]: 0.22 ± 0.024 nM | IC50 (KLK8): > 50 µM

SMILES: COC(=O)c1ccc(-n2nc(-c3ccccc3O)nc2-c2ccccc2O)cc1 [3i]
IC50 (KLK8): > 50 µM

SMILES: COC(=O)CNC(=O)c1ccc(-n2nc(-c3ccccc3O)nc2-c2ccccc2O)cc1 [3ja]
Kd [2]: 0.175 ± 0.015 nM | IC50 (KLK8): > 50 µM

SMILES: O=C(O)CNC(=O)c1ccc(-n2nc(-c3ccccc3O)nc2-c2ccccc2O)cc1 [3jb]
Kd [2]: 0.078 ± 0.009 nM | IC50 (KLK8): 27 ± 0.6 µM

SMILES: COC(=O)C(Cc1ccccc1)NC(=O)c1ccc(-n2nc(-c3ccccc3O)nc2-c2ccccc2O)cc1 (stereo not drawn) [3ka]
IC50 (KLK8): > 50 µM

SMILES: O=C(NC(Cc1ccccc1)C(=O)O)c1ccc(-n2nc(-c3ccccc3O)nc2-c2ccccc2O)cc1 (stereo not drawn) [3kb]
IC50 (KLK1): 16.4 ± 1 µM | IC50 (KLK8): 24.8 ± 1.9 µM

SMILES: COC(=O)C(Cc1c[nH]c2ccccc12)NC(=O)c1ccc(-n2nc(-c3ccccc3O)nc2-c2ccccc2O)cc1 (stereo not drawn) [3la]
Kd [2]: 0.13 ± 0.02 nM | IC50 (KLK8): > 50 µM

SMILES: COC(=O)C1CCCN1C(=O)c1ccc(-n2nc(-c3ccccc3O)nc2-c2ccccc2O)cc1 (stereo not drawn) [3ma]
Kd [2]: 0.105 ± 0.022 nM | IC50 (KLK8): > 50 µM

IC50 (KLK8; [7]): > 50 µM
SMILES: Oc1ccccc1-c1nc(-c2ccccc2O)n(-c2ccccc2)n1 [3n]
Kd [2]: 0.081 ± 0.045 nM

— PMC12221113, “Deferasirox Derivatives as Inhibitors of Kallikrein‐Related Peptidases Associated to Neurodegenerative Diseases” (Chemmedchem, 2025)
